Measurements from the NIST ThermoML archive (doi:10.1016/j.jct.2013.08.007).
± gives the expanded uncertainty stated by the source.

Columns and labels:
[1] = Liquid; for mass density: Vibrating tube method; for viscosity: 101.33 kPa, Moving piston method
[2] = xn = mol fraction of the nth substance listed; conditions: Liquid; for viscosity: Moving piston method; for mass density: Vibrating tube method

CCCCO [butan-1-ol]
mass density [kg/m3], [1]
Conditions	302.9 K	323.1 K
100 kPa	802 ± 0.3	785.6 ± 0.3
1010 kPa	–	786.6 ± 0.3
1020 kPa	802.7 ± 0.3	–
2010 kPa	803.4 ± 0.3	–
2020 kPa	–	787.5 ± 0.3
3010 kPa	804.1 ± 0.3	788.3 ± 0.3
4000 kPa	804.9 ± 0.3	789.2 ± 0.3
5010 kPa	805.7 ± 0.3	–
5020 kPa	–	790 ± 0.3
6000 kPa	806.4 ± 0.3	–
6020 kPa	–	790.9 ± 0.3
7000 kPa	–	791.7 ± 0.3
7020 kPa	807.2 ± 0.3	–
8010 kPa	807.9 ± 0.3	792.5 ± 0.3
9020 kPa	808.7 ± 0.3	793.3 ± 0.3
10020 kPa	809.4 ± 0.3	794.2 ± 0.3

[1]
Conditions	viscosity [mPa·s]
303.15 K	2.197 ± 0.088
323.3 K	1.347 ± 0.055

CCCCO [butan-1-ol] + O=C=O
[2]
Conditions	mass density, 303 K [kg/m3]	mass density, 323.1 K [kg/m3]	viscosity, 303 K [mPa·s]	viscosity, 323.1 K [mPa·s]
920 kPa, x2 = 0.047	–	789.3 ± 0.9	–	1.143 ± 0.029
1050 kPa, x2 = 0.07	808.1 ± 0.6	–	1.744 ± 0.079	–
1920 kPa, x2 = 0.098	–	793.3 ± 4.4	–	1 ± 0.11
2030 kPa, x2 = 0.14	814.3 ± 0.7	–	1.428 ± 0.063	–
2940 kPa, x2 = 0.151	–	798.4 ± 1	–	0.828 ± 0.054
3220 kPa, x2 = 0.217	822.8 ± 0.5	–	1.16 ± 0.04	–
3990 kPa, x2 = 0.223	–	802 ± 0.8	–	0.722 ± 0.02
4100 kPa, x2 = 0.304	828.4 ± 0.4	–	0.87 ± 0.044	–
4970 kPa, x2 = 0.384	835.3 ± 0.6	–	0.661 ± 0.022	–
5100 kPa, x2 = 0.288	–	806.7 ± 0.6	–	0.599 ± 0.017
6250 kPa, x2 = 0.374	–	811 ± 0.8	–	0.486 ± 0.016

CC [ethane] + CCCCO
[2]
Conditions	mass density, 303 K [kg/m3]	mass density, 323.1 K [kg/m3]	viscosity, 303 K [mPa·s]	viscosity, 323.1 K [mPa·s]
1050 kPa, x1 = 0.097	776.8 ± 0.8	–	1.553 ± 0.059	–
1140 kPa, x1 = 0.086	–	762.8 ± 1.1	–	1.008 ± 0.021
2050 kPa, x1 = 0.157	–	744.2 ± 3.3	–	0.801 ± 0.05
2080 kPa, x1 = 0.214	745.4 ± 3.1	–	1.114 ± 0.05	–
3070 kPa, x1 = 0.243	–	718.4 ± 2.3	–	0.618 ± 0.028
3070 kPa, x1 = 0.341	704.9 ± 3.2	–	0.668 ± 0.039	–
4070 kPa, x1 = 0.336	–	688.3 ± 3.8	–	0.462 ± 0.024
4950 kPa, x1 = 0.428	–	652.9 ± 2.4	–	0.351 ± 0.015
6020 kPa, x1 = 0.579	–	588.2 ± 1.9	–	0.212 ± 0.012

C [methane] + CCCCO
[2]
Conditions	mass density, 303 K [kg/m3]	mass density, 323.1 K [kg/m3]	viscosity, 303 K [mPa·s]	viscosity, 323.1 K [mPa·s]
1050 kPa, x1 = 0.02	–	782.2 ± 0.7	–	1.236 ± 0.035
1060 kPa, x1 = 0.021	797.6 ± 0.6	–	1.994 ± 0.1	–
2070 kPa, x1 = 0.035	–	778.5 ± 3.2	–	1.174 ± 0.13
2100 kPa, x1 = 0.039	793.7 ± 3.1	–	1.86 ± 0.057	–
2980 kPa, x1 = 0.048	–	775.5 ± 1	–	1.131 ± 0.031
3120 kPa, x1 = 0.056	789.4 ± 1.8	–	1.731 ± 0.25	–
4030 kPa, x1 = 0.065	–	771.6 ± 1	–	1.085 ± 0.042
4080 kPa, x1 = 0.071	785.8 ± 3.9	–	1.67 ± 0.12	–
5020 kPa, x1 = 0.079	–	767.9 ± 1	–	1.046 ± 0.029
5090 kPa, x1 = 0.087	781.8 ± 2.9	–	1.612 ± 0.077	–
6070 kPa, x1 = 0.095	–	764.2 ± 0.6	–	1.005 ± 0.034
6070 kPa, x1 = 0.102	778.3 ± 0.7	–	1.548 ± 0.083	–
